Data published in patent publication US20040248211A1, “ICAM-related protein” (priority 1992, published 2004).

Columns and labels:
[1] = tested on: SKW3 cell binding to ICAM-R; experiment: Peptide inhibition of SKW3 cell adhesion to soluble ICAM-R coated plastic; format: cell-based, human; conditions: peptide at 1-2 mg/ml; PMA; soluble ICAM-R coated wells
From the text: Based on amino acid sequence alignment with known β1 integrin binding domains in fibronectin and based on epitope mapping of anti-ICAM-R monoclonal antibodies that block cell adhesion (see Table 11 in Example 22), ICAM-R peptides corresponding to potential integrin binding sites were synthesized by Macromolecular Resources (Colorado State University, Fort Collins, Colo.). Four ICAM-R sequences which lie between or at the border of predicted beta strands in domains 1 and 3 of were chosen. Similar but not identical β-strand predictions for ICAM-1 are set out in Staunton et al., Cell, 61: 243-254 (1990). Inhibition was assayed using a system involving cell adhesion to soluble ICAM-R coated plastic. Calcein-labeled cells (see Example 7 Section A above) were incubated with peptide at 1-2 mg/ml for 20 minutes at 25° C. and the cells were transferred to wells of a 96-well plate previously coated with soluble ICAM-R (see Example 10) and containing 10 μg/ml final concentration phorbol 12-myristate 13-acetate (PMA). After 50 minutes, the plate was inverted in PBS for 10 minutes to remove unbound cells. Bound cells were quantitated using a fluorescence concentration analyzer.

Jurkat T leukemic cells = experiment: F-actin and G-actin cell content; format: cell-based, human; conditions: ICR-1.1 without gam
Method: Cellular shape changes (such as cell spreading) as well as T-cell activation are associated with changes in the cytoskeletal actin network manifested by alteration of the ratio of globular actin (G-actin) to filamentous actin (F-actin). To test whether the engagement by ICAM-R antibodies of ICAM-R expressed on Jurkat T leukemic cells would induce changes in cellular actin ratios, studies measuring F-actin and G-actin cell content were carried out by methods known in the art.

human PBL = experiment: Tyrosine phosphorylation in PBL after crosslinking; format: cell-based; conditions: soluble antibody 30 ug/ml, goat anti-mouse IgG 100 ug/ml
Method: Human PBL was obtained by Ficoll-Hypaque centrifugation and were incubated for 5 minutes with soluble ICR-4.2, OKT3 or anti-HLA-(1×10^7 cells were incubated with each antibody at 30 ug/ml). The cells were then washed and goat anti-mouse IgG (Cappell) was added to a final concentration of 100 ug/ml. After varying periods of time, the cells were lysed in detergent and lysates were electrophoresed on a 10% acrylamide gel, transferred to blotting paper. Blots were then probed with the anti-phosphotryosine antibody 4G10.

Jurkat T cells = experiment: MIP-1 alpha ELISA, Jurkat on co-immobilized antibodies; format: cell-based, human; conditions: anti-ICAM-R 10 μg/ml co-immobilized with sub-optimal OKT3; OKT3 = sub-optimal concentration alone
Method: In addition to induction in monocytes, the expression of MIP-1 alpha in the Jurkat T leukemic cell line upon treatment with ICR-5.1, ICR-4.2 or ICR-9.2 was also examined. A sub-optimal dose of anti-CD3 antibody OKT3 (500 ng/ml) in PBS-CMF was plated onto flat-bottomed 96-well polystyrene plates and incubated overnight at 4° C. Then, after removing well contents, monoclonal antibody OKT3, ICR-5.1, ICR-4.2, or ICR-9.2 (10 μg/ml in PBS-CMF) was plated overnight at 4° C. Wells were blocked with 1% BSA in PBS-CMF at 37° C. for 1 hour and then rinsed in PBS-CMF. Jurkat T cells were seeded into wells at 2×10^5/well in RPMI/10%FCS+10 μg/ml polymyxin B—SO4. Cells were incubated in wells for 4, 6, or 8 hours or overnight at 37° C. in 5% CO2. Supernatants were harvested by transferring well contents to round-bottomed 96-well polystyrene plates, harvested by centrifuging for 5 minutes at 1200 rpm and by re-transferring to new round-bottomed plates. MIP-1 alpha release into the cell supernatant was assayed by a specific ELISA for MIP-1 alpha.

HL60 cells = experiment: IL-8 release from HL60; format: cell-based, human
Method: Monocytes were isolated by elutriation from peripheral blood of normal donors. […] After blocking free sites, the cells were placed into the wells in medium. […] Those cells plated in wells treated with BSA plus or minus LPS were rounded and not spread. After 8 or 18 hours of incubation at 37° C., the medium was removed and assayed for IL-8 immunoreactivity. […] By 18 hours, IL-8 levels in media from ICR monoclonal antibody wells were much elevated over control levels. […] Similar experiments with monocytic cell lines (U937 and HL60) to determine if ICR monoclonal antibody can induce IL-8 release were conducted. U937 cells responded to each of the ICR monoclonal antibody treated wells by releasing IL-8 into the conditioned medium. […] No detectable morphological changes were detected with the U937 or HL60 cells.

THP-1 cells = experiment: MIP-1 alpha secretion by THP-1 on immobilized soluble LFA-1; format: cell-based, human; conditions: background approximately 100 pg/ml
Method: A soluble version of LFA-1, when immobilized onto plastic wells, induced THP-1 cells to secrete approximately […] MIP-1 alpha, whereas background levels were approximately 100 pg/ml.

ICAM-1 70-74: ICAM-1 domain 1 peptide (DGQST, SEQ ID NO: 25)
% Inhibition CD18-Dependent Binding (SKW3) [1]: did not inhibit binding

OKT3: anti-CD3 antibody [reference compound]
time to peak F-actin content (Jurkat T leukemic cells; OKT3 plus gam): ≤ 10 min
F-actin content (Jurkat T leukemic cells; OKT3 plus goat anti-mouse crosslinker (gam)): rapid, transient increase in F-actin content
tyrosine phosphorylation after crosslinking (human PBL): Phosphorylation of substrates were also observed
MIP-1 alpha expression relative to BSA background (Jurkat T cells): three-fold

lipopolysaccharide [LPS]
IL-8 release (HL60 cells): did induce a marked release

soluble version of LFA-1: soluble version of LFA-1 immobilized onto plastic wells
MIP-1 alpha secreted (THP-1 cells): approximately 1000 μg/ml
